Assay results reported in patent US11000481B2, “Composite preparation of mosapride and rabeprazole” (KOREA UNITED PHARM. INC., priority 2015, dated 2021).
Where two headings read alike, the source gives them in different places.

Key:
[1] = exposed to an acidic condition of pH 6.8 or below; conventionally known; cited from earlier work
[2] = Stability of rabeprazole sodium depending on pH; type: physicochemical; conditions: condition of pH 9.0
Excerpt: Accordingly, it was difficult to conduct a dissolution test for the rabeprazole sodium drug in general conditions.

SMILES: COCCCOc1ccnc(C[S+]([O-])c2nc3ccccc3[nH]2)c1C (centres unmarked) [rabeprazole sodium]
- Stability of rabeprazole sodium [1]: degraded
- Stability of rabeprazole sodium [2]: highly stable
